Laboratory results taken from US20160039904A1, “STABILIZED SINGLE HUMAN CD4 DOMAINS AND FUSION PROTEINS” (priority 2013, published 2016).
“And” between values parts separate entries of the source, which are not always exact repeats. Identical values can stand only once. Like-named read-outs stand apart in the source and are kept apart here.

Assays:
Type in all cases: cell-based
HIV-1 CH110 = conditions: Table 7; CH110, clade BC, R5
HIV-1 CNE46 = conditions: Table 7; CNE46, clade BC, R5
HIV-1 CNE57 = conditions: Table 7; CNE57, clade B′, X4
HIV-1 CNE47 = conditions: Table 7; CNE47, clade BC, R5
HIV-1 CH120 = conditions: Table 7; CH120, clade BC, R5
HIV-1 CNE65 = conditions: Table 7; CNE65, clade C, R5
HIV-1 CNE15 = conditions: Table 7; CNE15, clade BC, R5
HIV-1 CH117 = conditions: Table 7; CH117, clade BC, R5
[1] = system: 41 HIV-1 isolates predominantly circulating in China; conditions: for IC50 / IC90: Table 7, all viruses, >750 assigned 800, >250 assigned 300, >100 assigned 150, >28 assigned 30
HIV-1 CNE14 = conditions: Table 7; CNE14, clade B′, R5
HIV-1 CNE9 = conditions: Table 7; CNE9, clade B′, R5
HIV-1 YN192.31 = conditions: Table 7; YN192.31, clade AE, R5
HIV-1 CNE55 = conditions: Table 7; CNE55, clade AE, R5
HIV-1 CNE16 = conditions: Table 7; CNE16, clade BC, R5
HIV-1 CNE4 = conditions: Table 7; CNE4, clade B′, R5
HIV-1 CNE107 = conditions: Table 7; CNE107, clade AE, X4
HIV-1 CNE66 = conditions: Table 7; CNE66, clade C, R5
HIV-1 CH119 = conditions: Table 7; CH119, clade BC, R5
HIV-1 CNE53 = conditions: Table 7; CNE53, clade BC, R5
HIV-1 CNE23 = conditions: Table 7; CNE23, clade BC, R5
HIV-1 CNE5 = conditions: Table 7; CNE5, clade AE, R5
HIV-1 AE03 = conditions: Table 7; AE03, clade AE, R5
HIV-1 CNE40 = conditions: Table 7; CNE40, clade BC, R5
HIV-1 CH91 = conditions: Table 7; CH91, clade BC, R5
HIV-1 CNE1 = conditions: Table 7; CNE1, clade B′, X4
HIV-1 CNE20 = conditions: Table 7; CNE20, clade BC, R5
HIV-1 CNE7 = conditions: Table 7; CNE7, clade BC, R5
HIV-1 CH70 = conditions: Table 7; CH70, clade BC, R5
HIV-1 AE20 = conditions: Table 7; AE20, clade AE, R5
HIV-1 CH114 = conditions: Table 7; CH114, clade BC, R5
HIV-1 CNE30 = conditions: Table 7; CNE30, clade BC, R5
HIV-1 CNE6 = conditions: Table 7; CNE6, clade B′, R5
[2] = read-out: IC50, arithmetic mean
[3] = read-out: IC90, arithmetic mean

## 4Dm2m: bispecific multivalent fusion protein of mD1.22 and m36.4; two SEQ ID NO: 20 and two SEQ ID NO: 21 chains
HIV-1 CH110
  IC50: 0.11 nM
  IC90: 0.83 nM
HIV-1 CNE46
  IC50: 0.27 nM
  IC90: 9.4 nM
HIV-1 CNE57
  IC90: 19 nM
HIV-1 CNE47
  IC50: 0.11 nM
  IC90: 2.8 nM
HIV-1 CH120
  IC50: 0.33 nM
  IC90: 6.6 nM
HIV-1 CNE65
  IC50: 0.28 nM
  IC90: 3.3 nM
HIV-1 CNE15
  IC50: 0.29 nM
  IC90: 2.6 nM
HIV-1 CH117
  IC50: 0.33 nM
[1]; 41 isolates, P<0.001
  IC50 geometric mean lower than that of C34: ~16 fold
  IC50 geometric mean lower than that of CD4-Ig: ~200 fold
[1]; 41 isolates, P=0.002
  IC50 geometric mean lower than that of T20: about 50 fold
[1]; [2]
  IC50: 0.34 nM
[1]; read-out: IC50, geometric mean
  IC50: ~0.2 nM and 0.22 nM
[1]; [3]
  IC90: 6.2 nM
[1]; read-out: IC90, geometric mean
  IC90: 3.5 nM
HIV-1 CNE14
  IC90: 2.4 nM
HIV-1 CNE9
  IC50: 0.22 nM
HIV-1 YN192.31
  IC50: 0.89 nM
HIV-1 CNE55
  IC50: 0.45 nM
  IC90: 10 nM
HIV-1 CNE16
  IC50: 0.08 nM
  IC90: 1.2 nM
HIV-1 CNE4
  IC50: 0.11 nM
  IC90: 2.4 nM
HIV-1 CNE107
  IC50: 0.52 nM
HIV-1 CNE66
  IC90: 7.7 nM
HIV-1 CH119
  IC90: 3.4 nM
HIV-1 CNE53
  IC50: 0.24 nM
  IC90: 5.5 nM
HIV-1 CNE23
  IC50: 0.49 nM
  IC90: 4.9 nM
HIV-1 CNE5
  IC50: 0.67 nM
  IC90: 8.7 nM
HIV-1 AE03
  IC50: 0.67 nM
HIV-1 CNE40
  IC50: 0.01 nM
  IC90: 0.11 nM
HIV-1 CH91
  IC50: 0.39 nM
  IC90: 10 nM
HIV-1 CNE1
  IC50: 0.11 nM
  IC90: 0.61 nM
HIV-1 CNE20
  IC50: 0.05 nM
  IC90: 5.3 nM
HIV-1 CNE7
  IC50: 0.18 nM
  IC90: 1.8 nM
HIV-1 CH70
  IC50: 0.11 nM
  IC90: 1.2 nM
HIV-1 AE20
  IC50: 0.72 nM
HIV-1 CH114
  IC50: 0.11 nM
  IC90: 4 nM
HIV-1 CNE30
  IC50: 0.07 nM
  IC90: 0.44 nM
HIV-1 CNE6
  IC50: 0.33 nM
  IC90: 2.3 nM

## enfuvirtide
HIV-1 CH110
  IC50: 4.3 nM
  IC90: 262 nM
HIV-1 CNE46
  IC50: 26 nM
  IC90: 743 nM
HIV-1 CNE57
  IC50: 2.5 nM
  IC90: 24 nM
HIV-1 CNE47
  IC50: 4.9 nM
  IC90: 42 nM
HIV-1 CH120
  IC50: 11 nM
  IC90: 443 nM
HIV-1 CNE65
  IC50: 5.9 nM
  IC90: 78 nM
HIV-1 CNE15
  IC50: 14 nM
  IC90: 157 nM
HIV-1 CH117
  IC50: 2.3 nM
  IC90: 34 nM
[1]; [2]
  IC50: 37 nM
[1]; read-out: IC50, geometric mean
  IC50: 11 nM
[1]; [3]
  IC90: 277 nM
[1]; read-out: IC90, geometric mean
  IC90: 123 nM
HIV-1 CNE14
  IC50: 9.7 nM
  IC90: 305 nM
HIV-1 CNE9
  IC50: 1.7 nM
  IC90: 14 nM
HIV-1 YN192.31
  IC50: 42 nM
  IC90: 336 nM
HIV-1 CNE55
  IC50: 26 nM
  IC90: 549 nM
HIV-1 CNE16
  IC50: 14 nM
  IC90: 169 nM
HIV-1 CNE4
  IC50: 1.7 nM
  IC90: 14 nM
HIV-1 CNE107
  IC50: 3.8 nM
  IC90: 45 nM
HIV-1 CNE66
  IC50: 129 nM
  IC90: 729 nM
HIV-1 CH119
  IC50: 2 nM
  IC90: 25 nM
HIV-1 CNE53
  IC50: 51 nM
  IC90: 721 nM
HIV-1 CNE23
  IC50: 15 nM
  IC90: 228 nM
HIV-1 CNE5
  IC50: 2.1 nM
  IC90: 19 nM
HIV-1 AE03
  IC50: 304 nM
  IC90: 510 nM
HIV-1 CNE40
  IC50: 4.9 nM
  IC90: 108 nM
HIV-1 CH91
  IC50: 8.6 nM
  IC90: 310 nM
HIV-1 CNE1
  IC50: 1.6 nM
  IC90: 17 nM
HIV-1 CNE20
  IC50: 5.5 nM
  IC90: 41 nM
HIV-1 CNE7
  IC50: 4.3 nM
  IC90: 58 nM
HIV-1 CH70
  IC50: 65 nM
  IC90: > 750 nM
HIV-1 AE20
  IC50: 212 nM
  IC90: 572 nM
HIV-1 CH114
  IC50: 102 nM
  IC90: > 750 nM
HIV-1 CNE30
  IC50: 26 nM
  IC90: 285 nM
HIV-1 CNE6
  IC50: 1.4 nM
  IC90: 15 nM
